According to patent publication US10947252B2, “Inhibitors of KEAP1-Nrf2 protein-protein interaction” (Janssen Pharmaceutica NV, priority 2018, dated 2021):

What was measured:
[1] = target: Kelch domain of human KEAP1 (321-624 aa) (Homo sapiens (Human), UniProt Q14145); experiment: KEAP1 KELCH ThermoFluor binding assay; conditions: KEAP Kelch […], 1,8-ANS, pH 7.0, average of results obtained, read-out: Tf Kd;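 further: Ligand-induced melting temperature shift of E. coli-expressed KEAP1 Kelch protein, Kd estimated from concentration-response curves of ΔTm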
[2] = tested on: Glo-Response ARE-luc2P HEK293 cell line; experiment: ARE luciferase reporter cell-based assay; conditions: Homo sapiens, HEK293, 24 h, average of results obtained;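 further: luciferase signal tracks Nrf2 activation of the ARE once compounds disrupt KEAP1-Nrf2 binding, read with One-Glo reagent, DMSO serving as low control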

Chain of Kelch domain of human KEAP1 (321-624 aa) (Q14145 321-624): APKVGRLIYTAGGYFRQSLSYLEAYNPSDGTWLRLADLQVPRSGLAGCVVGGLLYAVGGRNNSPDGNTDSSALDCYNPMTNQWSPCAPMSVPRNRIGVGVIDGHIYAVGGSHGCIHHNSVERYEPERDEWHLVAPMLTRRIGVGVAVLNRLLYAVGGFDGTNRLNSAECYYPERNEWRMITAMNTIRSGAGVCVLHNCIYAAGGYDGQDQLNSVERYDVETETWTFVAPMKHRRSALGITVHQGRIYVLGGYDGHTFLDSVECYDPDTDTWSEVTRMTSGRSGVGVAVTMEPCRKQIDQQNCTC

Row | Kd [1] | SMILES | EC50 [2]
1 | < 1 nM | Cc1ccc(C(c2ccn3c(C(F)(F)F)nnc3c2C)C(C)(C)C(=O)O)cc1CN1CC2(CCOCC2)Oc2nc(N[C@@H](C)CCO)ccc2S1(=O)=O (some centres unmarked) [Example 118] | 324 nM
2 | < 1 nM | CC[C@@H]1CN(Cc2cc(C(CC(=O)O)c3ccn4c(C(F)(F)F)nnc4c3)ccc2C)S(=O)(=O)c2cccnc2O1 (stereo partly drawn) [Example 256, 3-(3-(((R)-4-Ethyl-1,1-dioxido-3,4-dihydro-2H-pyrido[2,3-b][1,4,5]oxathiazepin-2-yl)methyl)-4-methylphenyl)-3-(3-(trifluoromethyl)-[1,2,4]triazolo[4,3-a]pyridin-7-yl)propanoic Acid] | 379 nM
3 | < 1 nM | Cc1ccc(C(CC(=O)O)c2ccn3c(C(F)(F)F)nnc3c2C)cc1CN1CC2(COC2)Oc2ccccc2S1(=O)=O (centres unmarked) [Example 287, 3-(3-((1,1-Dioxidospiro[benzo[b][1,4,5]oxathiazepine-4,3′-oxetan]-2(3H)-yl)methyl)-4-methylphenyl)-3-(8-methyl-3-(trifluoromethyl)-[1,2,4]triazolo[4,3-a]pyridin-7-yl)propanoic Acid] | 28.1 nM
4 | < 1 nM | CCn1nnc2c(C)c(C(CC(=O)O)c3ccc(C)c(CN4C[C@H]5CCCN5c5ncccc5S4(=O)=O)n3)ccc21 (stereo partly drawn) [Example 296, 3-(6-(((R)-5,5-Dioxido-7a,8,9,10-tetrahydropyrido[2,3-f]pyrrolo[2,1-d][1,2,5]thiadiazepin-6(7H)-yl)methyl)-5-methylpyridin-2-yl)-3-(1-ethyl-4-methyl-1H-benzo[d][1,2,3]triazol-5-yl)propanoic Acid] | 13.6 nM
5 | < 1 nM | Cc1ccc(C(CC(=O)O)c2ccn3c(C(F)F)nnc3c2C)cc1CN1CC2(CC2)Oc2ncccc2S1(=O)=O (centres unmarked) [Example 472, 3-(3-(Difluoromethyl)-8-methyl-[1,2,4]triazolo[4,3-a]pyridin-7-yl)-3-(3-((1′,1′-dioxidospiro[cyclopropane-1,4′-pyrido[2,3-b][1,4,5]oxathiazepin]-2′(3′H)-yl)methyl)-4-methylphenyl)propanoic Acid] | 245 nM
6 | < 1 nM | Cc1ccc(C(CC(=O)O)c2ccn3c(C(F)(F)F)nnc3c2C)nc1CN1CC2(COC2)Oc2ccccc2S1(=O)=O (centres unmarked) [Example 484, 3-(6-((1,1-Dioxidospiro[benzo[b][1,4,5]oxathiazepine-4,3′-oxetan]-2(3H)-yl)methyl)-5-methylpyridin-2-yl)-3-(8-methyl-3-(trifluoromethyl)-[1,2,4]triazolo[4,3-a]pyridin-7-yl)propanoic Acid] | 226 nM
7 | < 1 nM | Cc1ccc(C(CC(=O)O)c2ccn3c(C(F)(F)F)nnc3c2C)nc1CN1CC2(COC2)Oc2ncccc2S1(=O)=O (centres unmarked) [Example 493, 3-(6-((1′,1′-Dioxidospiro[oxetane-3,4′-pyrido[2,3-b][1,4,5]oxathiazepin]-2′(3′H)-yl)methyl)-5-methylpyridin-2-yl)-3-(8-methyl-3-(trifluoromethyl)-[1,2,4]triazolo[4,3-a]pyridin-7-yl)propanoic Acid] | 1230 nM

Further lines, the molecule ahead of its results:

Row | SMILES | Kd [1] | EC50 [2]
8 | Cc1c(C(CC(=O)O)c2ccc(Cl)c(CN3CC4CCCCN4c4ncc(F)cc4S3(=O)=O)c2)ccn2c(C(F)(F)F)nnc12 (centres unmarked) [Example 92, 3-(4-Chloro-3-(((*S)-3-fluoro-5,5-dioxido-7,7a,8,9,10,11-hexahydro-6H-dipyrido[2,1-d:2′,3′-f][1,2,5]thiadiazepin-6-yl)methyl)phenyl)-3-(8-methyl-3-(trifluoromethyl)-[1,2,4]triazolo[4,3-a]pyridine-7-yl)propanoic Acid] | < 1 nM | 28.6 nM
9 | Cc1ccc(C(c2ccn3c(C(F)(F)F)nnc3c2C)C(C)(C)C(=O)O)cc1CN1CC2(CCOCC2)Oc2nc(N[C@H](C)CCO)ccc2S1(=O)=O (some centres unmarked) [Example 117] | < 1 nM | 425 nM
10 | CCn1nnc2c(C)c(C(CC(=O)O)c3ccc(C)c(CN4CC5(COC5)Oc5ncccc5S4(=O)=O)c3)ccc21 (centres unmarked) [Example 252, 3-(3-((1′,1′-Dioxidospiro[oxetane-3,4′-pyrido[2,3-b][1,4,5]oxathiazepin]-2′(3′H)-yl)methyl)-4-methylphenyl)-3-(1-ethyl-4-methyl-1H-benzo[d][1,2,3]triazol-5-yl)propanoic Acid] | < 1 nM | 21 nM
11 | Cc1ccc(C(CC(=O)O)c2ccn3c(C(F)(F)F)nnc3c2)cc1CN1C[C@@H]2CCCN2c2ncccc2S1(=O)=O (stereo partly drawn) [Example 253, 3-(3-(((S)-5,5-Dioxido-7a,8,9,10-tetrahydropyrido[2,3-f]pyrrolo[2,1-d][1,2,5]thiadiazepin-6(7H)-yl)methyl)-4-methylphenyl)-3-(3-(trifluoromethyl)-[1,2,4]triazolo[4,3-a]pyridin-7-yl)propanoic Acid] | < 1 nM | 1170 nM
12 | Cc1ccc(C(CC(=O)O)c2ccn3c(C(F)(F)F)nnc3c2C)cc1CN1CC2(COC2)Oc2ncccc2S1(=O)=O (centres unmarked) [Example 259, 3-(3-((1′,1′-Dioxidospiro[oxetane-3,4′-pyrido[2,3-b][1,4,5]oxathiazepin]-2′(3′H)-yl)methyl)-4-methylphenyl)-3-(8-methyl-3-(trifluoromethyl)-[1,2,4]triazolo[4,3-a]pyridin-7-yl)propanoic Acid] | < 1 nM | 201 nM
13 | Cc1ccc(C(CC(=O)O)c2ccn3c(C(F)(F)F)nnc3c2C)cc1CN1C[C@H]2CCCN2c2ncccc2S1(=O)=O (stereo partly drawn) [Example 264, 3-(3-(((R)-5,5-Dioxido-7a,8,9,10-tetrahydropyrido[2,3-f]pyrrolo[2,1-d][1,2,5]thiadiazepin-6(7H)-yl)methyl)-4-methylphenyl)-3-(8-methyl-3-(trifluoromethyl)-[1,2,4]triazolo[4,3-a]pyridin-7-yl)propanoic Acid] | < 1 nM | 18.3 nM
14 | Cc1ccc(C(CC(=O)O)c2ccn3c(C(F)(F)F)nnc3c2C)cc1CN1C[C@H]2CCCN2c2ccccc2S1(=O)=O (stereo partly drawn) [Example 265, 3-(3-(((R)-5,5-Dioxido-7a,8,9,10-tetrahydrobenzo[f]pyrrolo[2,1-d][1,2,5]thiadiazepin-6(7H)-yl)methyl)-4-methylphenyl)-3-(8-methyl-3-(trifluoromethyl)-[1,2,4]triazolo[4,3-a]pyridin-7-yl)propanoic Acid] | < 1 nM | 31.2 nM
15 | Cc1ccc(C(CC(=O)O)c2ccn3c(C(F)(F)F)nnc3c2C)cc1CN1CC(C)(C)Oc2ncccc2S1(=O)=O (centres unmarked) [Example 268, 3-(3-((4,4-Dimethyl-1,1-dioxido-3,4-dihydro-2H-pyrido[2,3-b][1,4,5]oxathiazepin-2-yl)methyl)-4-methylphenyl)-3-(8-methyl-3-(trifluoromethyl)-[1,2,4]triazolo[4,3-a]pyridin-7-yl)propanoic Acid] | < 1 nM | 516 nM
16 | CCc1nnc2c(C)c(C(CC(=O)O)c3ccc(C)c(CN4C[C@H]5CCCN5c5ccccc5S4(=O)=O)c3)ccn12 (stereo partly drawn) [Example 278, 3-(3-(((R)-5,5-Dioxido-7a,8,9,10-tetrahydrobenzo[f]pyrrolo[2,1-d][1,2,5]thiadiazepin-6(7H)-yl)methyl)-4-methylphenyl)-3-(3-ethyl-8-methyl-[1,2,4]triazolo[4,3-a]pyridin-7-yl)propanoic Acid] | < 1 nM | 467 nM
17 | CCc1nnc2c(C)c(C(CC(=O)O)c3ccc(C)c(CN4C[C@H]5CCCN5c5ncccc5S4(=O)=O)c3)ccn12 (stereo partly drawn) [Example 281, 3-(3-(((R)-5,5-Dioxido-7a,8,9,10-tetrahydropyrido[2,3-f]pyrrolo[2,1-d][1,2,5]thiadiazepin-6(7H)-yl)methyl)-4-methylphenyl)-3-(3-ethyl-8-methyl-[1,2,4]triazolo[4,3-a]pyridin-7-yl)propanoic Acid] | < 1 nM | 480 nM
18 | Cc1ccc(C(c2ccc3c(nnn3CC3CC3)c2C)C(C)(C)C(=O)O)nc1CN1CC2(CCOCC2)Oc2nc(OCCN3CCOCC3)ccc2S1(=O)=O (centres unmarked) [Example 327, 3-(1-(Cyclopropylmethyl)-4-methyl-1H-benzo[d][1,2,3]triazol-5-yl)-2,2-dimethyl-3-(5-methyl-6-((7′-(2-morpholinoethoxy)-1′,1′-dioxido-2,3,5,6-tetrahydrospiro[pyran-4,4′-pyrido[2,3-b][1,4,5]oxathiazepin]-2′(3′H)-yl)methyl)pyridin-2-yl)propanoic Acid] | < 1 nM | 6.9 nM
19 | Cc1ccc(C(CC(=O)O)c2ccc3c(nnn3CC3CC3)c2C)cc1CN1C[C@H]2CCCN2c2ncccc2S1(=O)=O (stereo partly drawn) [Example 400, 3-(1-(cyclopropylmethyl)-4-methyl-1H-benzo[d][1,2,3]triazol-5-yl)-3-(3-(((R)-5,5-dioxido-7a,8,9,10-tetrahydropyrido[2,3-f]pyrrolo[2,1-d][1,2,5]thiadiazepin-6(7H)-yl)methyl)-4-methylphenyl)propanoic acid] | < 1 nM | 4.1 nM
20 | Cc1ccc(C(CC(=O)O)c2ccn3c(C(F)(F)F)nnc3c2C)cc1CN1CC2CCC(F)(F)CN2c2ncccc2S1(=O)=O (centres unmarked) [Example 452, 3-(3-((10,10-Difluoro-5,5-dioxido-7,7a,8,9,10,11-hexahydro-6H-dipyrido[2,1-d:2′,3′-f][1,2,5]thiadiazepin-6-yl)methyl)-4-methylphenyl)-3-(8-methyl-3-(trifluoromethyl)-[1,2,4]triazolo[4,3-a]pyridin-7-yl)propanoic Acid] | < 1 nM | 116 nM
21 | Cc1ccc(C(CC(=O)O)c2ccn3c(C(F)F)nnc3c2C)cc1CN1CC2(COC2)Oc2ccccc2S1(=O)=O (centres unmarked) [Example 466, 3-(3-(Difluoromethyl)-8-methyl-[1,2,4]triazolo[4,3-a]pyridin-7-yl)-3-(3-((1,1-dioxidospiro[benzo[b][1,4,5]oxathiazepine-4,3′-oxetan]-2(3H)-yl)methyl)-4-methylphenyl)propanoic Acid] | < 1 nM | 124 nM
22 | Cc1ccc(C(CC(=O)O)c2ccn3c(C(F)F)nnc3c2C)cc1CN1CC2(COC2)Oc2ncccc2S1(=O)=O (centres unmarked) [Example 469, 3-(3-(Difluoromethyl)-8-methyl-[1,2,4]triazolo[4,3-a]pyridin-7-yl)-3-(3-((1′,1′-dioxidospiro[oxetane-3,4′-pyrido[2,3-b][1,4,5]oxathiazepin]-2′(3′H)-yl)methyl)-4-methylphenyl)propanoic Acid] | < 1 nM | 608 nM
